From ChEMBL document CHEMBL3507680, “University of Dundee, Gates Library screen for HepG2 cell viability”

Test: Human HepG2 cell viability assay in 384 well format
Type: toxicity, cell-based
Design: dose 125 nL, time 70.5 hour; cytotoxicity at 70.5 h: concentration not given beside the values
Conditions: HepG2 cells, read-out: Inhibition

| Compound | cytotoxicity at 70.5 h [%] |
| --- | --- |
| CCn1ccnc1CN1CCN(C(C)C(=O)NC2CCCC2)CC1 (stereo not given) | -4.1 |
| CN(C(=O)NCc1ccsc1)C1CCN(c2ccccc2)C1=O (stereo not given) | 0.0689 |
| CCc1nnc(NC(=O)Cc2c(C)nc(C)[nH]c2=O)s1 | 13.4 |
| Cc1nc(C)c(CC(=O)Nc2nnc(C3CC3)s2)c(=O)[nH]1 | -7.66 |
| Cc1occc1C(=O)NCc1cccnc1N(C)C | -14.4 |
| COc1ncccc1CNC(=O)c1c(C)oc(C)c1C | -8.16 |
| Cc1noc(C)c1C(=O)NCc1cccnc1N(C)C | -9.96 |
| CC(C)(C)NC(=O)CCOc1cccc(F)c1 | -5.57 |
| Cc1nc(C)c(CC(=O)Nc2nnc(C(C)C)s2)c(=O)[nH]1 | -5.16 |
| N#Cc1cn(C2CC2)c(=O)n(CC(O)c2ccc(F)cc2)c1=O (stereo not given) | -16.6 |
| Cc1noc2ncc(C(=O)NCC3CCCO3)cc12 (stereo not given) | -7.11 |
| Cc1cc(NC(=O)NCC(O)c2ccc(F)cc2)n(C)n1 (stereo not given) | -12.7 |
| Cc1noc2ncc(C(=O)NCC3CCS(=O)(=O)C3)cc12 (stereo not given) | -7.14 |
| CCN(CC1CCOC1)C(=O)c1cnc2onc(C)c2c1 (stereo not given) | -8.61 |
| Cc1nc(C)c(CC(=O)Nc2nc(C)c(C)s2)c(=O)[nH]1 | -17.1 |
| CC(Cn1ccnc1)NC(=O)NCCc1cccs1 (stereo not given) | -11.6 |
| CC(Cn1ccnc1)NC(=O)NCCc1cccnc1 (stereo not given) | -2.45 |
| O=C(COCC1CC1)Nc1ncn(CC(=O)N2CCCCCC2)n1 | -3.31 |
| CC(C)(CNC(=O)CCCOc1cccc(F)c1)C(N)=O | -14.4 |
| c1cncc(-c2noc(CN3CCc4cncnc4C3)n2)c1 | -12.6 |
| COc1ccc(-c2nc(CN3CCc4cncnc4C3)no2)cc1 | -3.32 |
| O=C(Nc1ncn(CC(=O)N2CCCCCC2)n1)C1CCCC1 | -7.56 |

| Compound | cytotoxicity at 70.5 h [%] |
| --- | --- |
| CC(C)c1nnc2n1CCN(C(=O)c1ccc(Cn3cccc3)cc1)C2 | -7.11 |
| Cc1cc(NC(=O)CCN2CCn3c(C)nnc3C2)no1 | -8.82 |
| Cc1cc(C)n(C2CCCN(C(=O)c3ccn(C)c(=O)c3)C2)n1 (stereo not given) | -9.18 |
| CCc1nc(C2CCCN2Cc2noc(Cc3ccccc3)n2)no1 (stereo not given) | -7.3 |
| CN(Cc1nc2ccccc2o1)CC1CCCN1c1cccnn1 (stereo not given) | 7.03 |
| Cc1noc(C2CCCN(C(=O)c3cc(Cl)ccc3F)C2)n1 (stereo not given) | -7.27 |
| CCc1nc(C2CCCN2Cc2nnc(CC)o2)no1 (stereo not given) | -9.92 |
| CCc1nc(CN2CCOC(CN(CC)c3cccnn3)C2)cs1 (stereo not given) | -12.8 |
| CN(Cc1ccsc1)C(=O)CN1CCCCC1Cn1cccn1 (stereo not given) | -10 |
| CN(Cc1nc2ccccc2n1C)CC1CCCN1c1cccnn1 (stereo not given) | -11.1 |
| Cc1nc(CN(C)CC2CCCN2c2cccnn2)nc2ccccc12 (stereo not given) | -5.19 |
| Cc1noc(CN2CCN(C(=O)c3ccccn3)CC2)n1 | -8.75 |
| O=c1n(CCSCc2ccccc2Br)nc2ccccn12 | 4.82 |
| CSC(C)C(=O)NCc1ccc(-n2cncn2)nc1 (stereo not given) | -10.2 |
| CCc1nnsc1C(=O)N1CCCN(Cc2ccccc2)CC1 | -8.56 |
| CC(=O)Nc1nc(C(=O)NC(C)c2ccncc2)cs1 (stereo not given) | 5.86 |
| CC(C)COC(C)C(=O)NCc1ccc(-n2cncn2)nc1 (stereo not given) | 3.66 |
| CC(C(=O)NCc1ccc(-n2cncn2)nc1)S(C)(=O)=O (stereo not given) | 0.438 |
| CNC(=O)NC(=O)CN(CC(C)O)c1ccccc1 (stereo not given) | -3.36 |
| Cc1cc(CN(C)C(=O)NC2CCC(O)CC2)no1 (stereo not given) | -7.4 |
| O=C(Cc1ccc2c(c1)CCC2)N1CCCC(n2cccn2)C1 (stereo not given) | -6.54 |
| N#Cc1ccc(CC(=O)N2CCCC(n3cccn3)C2)cc1 (stereo not given) | -5.65 |

| Compound | cytotoxicity at 70.5 h [%] |
| --- | --- |
| CCOc1ccccc1CSCCn1nc2ccccn2c1=O | -10.1 |
| Cc1cc(CN(C)C(=O)NC2CCCC2)no1 | -7.06 |
| COc1cccc(-c2nc(CNC(C)Cn3cccn3)cs2)c1 (stereo not given) | 12.8 |
| CCc1nc(CN2CCCN(C(=O)C3CCOCC3)CC2)cs1 | 18.1 |
| CCc1nc(CN2CCCN(C(=O)C3CCOC3)CC2)cs1 (stereo not given) | 7.45 |
| COc1ccc(C(=O)N(C)Cc2cc(C)on2)c(F)c1 | -10.6 |
| COc1cccc(-c2nc(CNCCCn3cccn3)cs2)c1 | -3.21 |
| COc1ccc(-c2nc(CNCCn3cccn3)cs2)cc1 | -5.1 |
| Cc1nc(CN2CCCN(C(=O)c3c(C)noc3C)CC2)cs1 | -5.02 |
| Cc1cc(CN(C)C(=O)c2ccc(F)cc2F)no1 | -7.99 |
| CCc1nc(CN2CCCN(C(=O)c3cncnc3C)CC2)cs1 | -7.12 |
| Cc1cc(NC(=O)C(C)N2CCN(c3nccs3)CC2)on1 (stereo not given) | -3.21 |
| Cc1n[nH]c(=O)c2c(NC(=O)CN3CCOCC3C)oc(C)c12 (stereo not given) | 4.42 |
| Cc1n[nH]c(=O)c2c(NC(=O)CN3CCOCC3)oc(C)c12 | -8.38 |
| Cc1nc(CN2CCN(C(=O)c3c(C)noc3C)CC2)cs1 | -3.65 |
| CN(Cc1nc2c(cnn2C)c(=O)[nH]1)Cc1ccccc1Cl | -4.36 |
| Cc1ccc(CN(C)Cc2nc3c(cnn3C)c(=O)[nH]2)c(C)c1 | 7.52 |
| COc1cccc(CN(C)Cc2nc3c(cnn3C)c(=O)[nH]2)c1OC | -5.01 |
| COc1ccccc1CCNC(=O)N1CCCC(c2nncn2C)C1 (stereo not given) | -1.17 |
| CC1CN(CC2CCCC2)CCN1c1ccc2nncn2n1 (stereo not given) | 4.49 |
| CN(Cc1ncc(-c2ccccc2)o1)C1CCCN(c2cccnn2)C1 (stereo not given) | 2.02 |
| O=C(CN1CCN(c2ccc3nncn3n2)CC1)NC1CCCC1 | 1.25 |

| Compound | cytotoxicity at 70.5 h [%] |
| --- | --- |
| CCc1nc(CN2CCCN(C(=O)CC3CCCC3)CC2)cs1 | 4.58 |
| O=C(CCSc1ccccc1F)NS(=O)(=O)c1ccc2c(c1)OCCO2 | -4.85 |
| O=C(CCc1ccc(F)cc1)NS(=O)(=O)c1ccc2c(c1)OCCO2 | -4.67 |
| O=C(O)c1csc(S(=O)(=O)Nc2cccc(OCC(F)(F)F)c2)c1 | -3.57 |
| Cc1nc(CN2CCCC(NCc3ccsc3)C2)no1 (stereo not given) | 1.36 |
| Cc1cnn(CC2CN(Cc3cccc(C(=O)N(C)C)c3)CCO2)c1 (stereo not given) | 3.78 |
| CC(=O)N1CCN(Cn2nc(-c3ccc(F)cc3)oc2=O)CC1 | -8.85 |
| Fc1cccc(Oc2ccc(CNCC3CNc4ccnn4C3)cn2)c1 (stereo not given) | 0.403 |
| CCC(C)(C)NC(=O)Cn1nc(C)nc1-c1cccc(C)c1 | -3.94 |
| CC1CN(CC(=O)NC2CCCC2)CCN1c1ccc2nncn2n1 (stereo not given) | -20.8 |
| CCc1nc(CN2CCCN(C(=O)COCC3CC3)CC2)cs1 | -12.1 |
| O=C(O)c1csc(S(=O)(=O)Nc2cccc(OC(F)F)c2)c1 | -12.7 |
| c1cc(-c2nc(CN3CCn4c(nnc4C4CC4)C3)cs2)cs1 | -25.2 |
| CC(C)(C)c1cn2nc(N3CCC[C@@H]3CO)sc2n1 | -17.4 |
| CCc1nc(CN2CCN(C(=O)Cc3c(C)noc3C)CC2)cs1 | -10.4 |
| CC(c1nc(C2CC2)no1)N1CCN(Cc2cccc(C#N)c2)CC1 (stereo not given) | -2.01 |
| c1cnn(CCNCc2csc(-c3ccsc3)n2)c1 | 10.6 |
| Cc1cc(NC(=O)C(C)N2CCCN(c3nccs3)CC2)on1 (stereo not given) | -15.9 |
| Cc1nn(C)c(N(C)C)c1CNCCOc1ccc2c(c1)OCO2 | -4.86 |
